Experimental data: patent US5026848A, “Novel generation of heteroaryloxyalkyl heterocycles with antipicornaviruses activities” (Synphar Laboratories Incorporated, priority 1988, dated 1991)
≈ marks a conversion by molar mass, not a printed value.

Tests used:
HRV-1A and HRV-39 = test: Anti-rhinovirus activity against HRV-1A and HRV-39; details: in words
Rhinovirus 1A = test: Anti-rhinovirus activity, cytopathic effect inhibition / neutral red dye uptake, type 1A; format: cell-based; details: Table I, WI38 cells, 33° C., 3-4 days, NA = Not active; for EC50: Enterovirus, WI-38, read-out: MIC50 Rhinovirus 1A
Rhinovirus 39 = test: Anti-rhinovirus activity, cytopathic effect inhibition / neutral red dye uptake, type 39; format: cell-based; details: Table I, WI38 cells, 33° C., 3-4 days; for EC50: Enterovirus, WI-38, read-out: MIC50 Rhinovirus 39
WI38 cells = test: Toxicity to WI38 cells (change in morphology in / growth inhibition of 25% of the cells); format: cell-based
Echo-7 = test: Activity against other picornaviruses, Echo-7; format: cell-based; details: Enterovirus, read-out: MIC 50 Echo 7
Coxsacki-B1 = test: Activity against other picornaviruses, Coxsacki-B1; format: cell-based; details: Enterovirus, read-out: MIC 50 Cox. B1
Rhinovirus 15 = test: Anti-rhinovirus activity, cytopathic effect inhibition / neutral red dye uptake, type 15; format: cell-based; details: Enterovirus, WI-38; Table II; one of seven commonest serotypes; read-out: MIC 50 Rhinovirus Type 15
[1] = tested on: 20 serotypes of rhinovirus; test: Anti-rhinovirus activity against a panel of 20 serotypes; details: Table II; numerator; denominator 20, but 10 for compound 8 and 6 for compound 30
Echo-11 = test: Activity against other picornaviruses, Echo-11; format: cell-based; details: Enterovirus, read-out: MIC 50 Echo 11
Polio 1 = test: microbe, parasite or virus in culture; format: cell-based; details: Enterovirus, read-out: MIC 50 Polio 1
Enterovirus serotypes = format: cell-based; details: Table III; numerator; denominator 7, but 5 for compound 8
Rhinovirus 4 = test: Anti-rhinovirus activity, cytopathic effect inhibition / neutral red dye uptake, type 4; format: cell-based; details: Enterovirus, WI-38; Table II; one of seven commonest serotypes; read-out: MIC 50 Rhinovirus Type 4
Rhinovirus 1B = test: Anti-rhinovirus activity, cytopathic effect inhibition / neutral red dye uptake, type 1B; format: cell-based; details: Enterovirus, WI-38; Table II; one of seven commonest serotypes; read-out: MIC 50 Rhinovirus Type 1B
Rhinovirus 31 = test: Anti-rhinovirus activity, cytopathic effect inhibition / neutral red dye uptake, type 31; format: cell-based; details: Enterovirus, WI-38; Table II; one of seven commonest serotypes; read-out: MIC 50 Rhinovirus Type 31
Rhinovirus 17 = test: Anti-rhinovirus activity, cytopathic effect inhibition / neutral red dye uptake, type 17; format: cell-based; details: Enterovirus, WI-38; Table II; read-out: MIC 50 Rhinovirus Type 17
Rhinovirus 86 = test: Anti-rhinovirus activity, cytopathic effect inhibition / neutral red dye uptake, type 86; format: cell-based; details: Enterovirus, WI-38; Table II; read-out: MIC 50 Rhinovirus Type 86
Rhinovirus 29 = test: Anti-rhinovirus activity, cytopathic effect inhibition / neutral red dye uptake, type 29; format: cell-based; details: Enterovirus, WI-38; Table II; one of seven commonest serotypes; read-out: MIC 50 Rhinovirus Type 29
Rhinovirus 36 = test: Anti-rhinovirus activity, cytopathic effect inhibition / neutral red dye uptake, type 36; format: cell-based; details: Enterovirus, WI-38; Table II; read-out: MIC 50 Rhinovirus Type 36
Coxsacki-A21 = test: Activity against other picornaviruses, Coxsacki-A21; format: cell-based; details: Enterovirus, read-out: MIC 50 Cox. A21
[2] = Table I, concentration with change in morphology in 25% of WI38 cells

| Compound | inhibitory activity against HRV-1A and HRV-39 in vitro (HRV-1A and HRV-39) | Toxicity (WI38 cells; [2]) | EC50 (Rhinovirus 1A) | EC50 (Rhinovirus 39) | also measured |
| --- | --- | --- | --- | --- | --- |
| Cc1cnsc1CCCCCCOc1cccc2ccccc12 | remarkably inhibitory activity | – | – | – | – |
| 5-[7-(2-Naphthyl)oxyheptyl]-3-methylthiazole [Compound 18] | – | > 50 µg/mL | – | – | MIC50 Rhinovirus 1A (Rhinovirus 1A): 25 µg/mL; MIC50 Rhinovirus 39 (Rhinovirus 39): 25 µg/mL |
| 5-[7-(fluoren-9-yl)oxyheptyl]-3-methylthiazole | remarkably inhibitory activity | – | – | – | – |
| Cc1cc(CCCCCCCOc2ccc(-n3cncn3)cc2)on1 [Compound 3, 5-{7-[4-(1,2,4-triazol-1-yl)phenoxy]heptyl}-3-methylisoxazole] | remarkably inhibitory activity | 750 µg/mL | 50 µg/mL (≈ 147 µM) | 50 µg/mL (≈ 147 µM) | – |
| Cc1cc(CCCCCCCON2C(=O)COc3c2ccc2ccccc32)on1 [Compound 6, 5-[7-(2,3-dihydro-3-oxo-4H-napth[1,2-b]-1,4-oxazin-4-yl)oxyheptyl]-3-methylisoxazole] | remarkably inhibitory activity | > 50 µg/mL | 50 µg/mL (≈ 127 µM) | 50 µg/mL (≈ 127 µM) | – |
| Cc1cc(CCCCCCCOc2ccc3c(c2)[nH]c2ccccc23)on1 [Compound 8, 5-[7-(carbazol-2-yl)oxyheptyl]-3-methylisoxazole] | remarkably inhibitory activity | 25 µg/mL | 10 µg/mL (≈ 27.6 µM) | 10 µg/mL (≈ 27.6 µM) | IC50 (Echo-7): > 25 µg/mL; IC50 (Coxsacki-B1): > 25 µg/mL; IC50 (Rhinovirus 15): > 25 µg/mL; All Rhinovirus Serotypes (number of serotypes active / tested) [1]: 4; IC50 (Echo-11): > 25 µg/mL; EC50 (Polio 1): > 25 µg/mL; All Enterovirus Serotypes (number of serotypes active / tested) (Enterovirus serotypes): 0; IC50 (Rhinovirus 4): > 25 µg/mL; Toxicity (WI38 cells; Table II): 25 µg/mL; Toxicity (WI38 cells; Table III): 25 µg/mL; IC50 (Rhinovirus 1B): 5 µg/mL (≈ 13.8 µM); EC50 (Rhinovirus 31): 1 µg/mL (≈ 2.76 µM); IC50 (Rhinovirus 17): > 25 µg/mL; EC50 (Rhinovirus 86): > 25 µg/mL; IC50 (Rhinovirus 29): > 25 µg/mL; EC50 (Rhinovirus 36): > 25 µg/mL; IC50 (Coxsacki-A21): > 25 µg/mL |
| Cc1cc(CCCCCCCOc2cc(C)c3ccccc3n2)on1 [Compound 10, 5-[7-(4-methylquinolin-2-yl)oxyheptyl]-3-methylisoxazole] | – | 50 µg/mL | 25 µg/mL (≈ 73.9 µM) | 25 µg/mL (≈ 73.9 µM) | – |
| Cc1cc(CCCCCCCOc2nc3ccccc3[nH]2)on1 [Compound 11, 5-[7-(benzimidazol-2-yl)oxyheptyl]-3-methylisoxazole] | – | 50 µg/mL | 25 µg/mL (≈ 79.8 µM) | 10 µg/mL (≈ 31.9 µM) | – |
| Cc1cc(CCCCCCCOC23CC4CC(CC(C4)C2)C3)on1 [Compound 12, 5-[7-(Adamantanol-1-yl)oxyheptyl]-3-methylisoxazole] | – | 50 µg/mL | 25 µg/mL (≈ 75.4 µM) | 10 µg/mL (≈ 30.2 µM) | – |
| Cc1cc(CCCCCCCOc2ccc3ccccc3c2)on1 [Compound 13, 5-[7-(2-naphthyl)oxyheptyl]-3-methylisoxazole] | remarkably inhibitory activity | 50 µg/mL | 25 µg/mL (≈ 77.3 µM) | 10 µg/mL (≈ 30.9 µM) | – |
| Cc1cc(CCCCCCCOc2cccc3ccccc23)on1 [Compound 14, 5-[7-(1-naphthyl)oxyheptyl]-3-methylisoxazole] | remarkably inhibitory activity | > 50 µg/mL | 25 µg/mL (≈ 77.3 µM) | 25 µg/mL (≈ 77.3 µM) | – |
| Cc1csc(CCCCCCCOc2cc(C)nc3ccccc23)n1 [Compound 16] | remarkably inhibitory activity | 25 µg/mL | – | 5 µg/mL (≈ 14.1 µM) | – |
| Cc1cc(OCCCCCCc2sncc2C)c2ccccc2n1 [Compound 20, 5-[6-(2-methylquinolin-4-yl)oxyhexyl]-4-methylisothiazole] | remarkably inhibitory activity | – | – | – | – |
| Cc1cnsc1CCCCCCOc1ccc2ccccc2c1 [Compound 21, 5-[6-(2-napthyl)oxyhexyl]-4-methylisothiazole] | – | 50 µg/mL | 25 µg/mL (≈ 76.8 µM) | 10 µg/mL (≈ 30.7 µM) | – |
| Cc1cnsc1CCCCCCOc1cccc2ccccc12 [Compound 22, 5-[6-(1-napthyl)oxyhexyl]-4-methylisothiazole] | – | > 50 µg/mL | 25 µg/mL (≈ 76.8 µM) | 25 µg/mL (≈ 76.8 µM) | – |
| Cc1cc(OCCCCCCc2ccns2)c2ccccc2n1 [Compound 26, 5-[6-(2-methylquinoline-4-yl)oxyhexyl]isothiazole] | remarkably inhibitory activity | – | – | – | – |
| Cc1cc(CCCCCCCOC2c3ccccc3-c3ccccc32)on1 [Compound 29, 5-[7-(fluorene-9-yloxy)-heptyl]-3-methylisoxazole] | – | > 50 µg/mL | – | 25 µg/mL (≈ 69.2 µM) | – |
| c1ccc(-n2nccc2CCCCCCOc2ccc3oc4ccccc4c3c2)cc1 [Compound 30] | remarkably inhibitory activity | > 50 µg/mL | 10 µg/mL (≈ 24.4 µM) | 5 µg/mL (≈ 12.2 µM) | IC50 (Rhinovirus 15): 5 µg/mL (≈ 12.2 µM); All Rhinovirus Serotypes (number of serotypes active / tested) [1]: 5; IC50 (Rhinovirus 4): 10 µg/mL (≈ 24.4 µM); Toxicity (WI38 cells; Table II): > 50 µg/mL; IC50 (Rhinovirus 1B): 10 µg/mL (≈ 24.4 µM); EC50 (Rhinovirus 31): > 25 µg/mL |
| Cc1cc(OCCCCCCc2ccnn2-c2ccccc2)c2ccccc2n1 [Compound 31, 5-[6-(2-methylquinolin-4-yl)oxyhexyl]-1-phenylpyrazole] | remarkably inhibitory activity | 25 µg/mL | 10 µg/mL (≈ 25.9 µM) | 10 µg/mL (≈ 25.9 µM) | – |
| c1ccc(-n2nccc2CCCCCCOc2ccc3ccccc3c2)cc1 [Compound 32, 5-[6-(2-naphthyl)-oxyhexyl]-1-phenylpyrazole] | remarkably inhibitory activity | 50 µg/mL | 25 µg/mL (≈ 67.5 µM) | 25 µg/mL (≈ 67.5 µM) | – |
| c1ccc(-n2nccc2CCCCCCOc2cccc3ccccc23)cc1 [Compound 33, 5-[6-(1-naphthyl)oxyhexyl]-1-phenylpyrazole] | remarkably inhibitory activity | – | – | – | – |
| Cc1cc(OCCCCCCc2c(Cl)cnn2-c2ccccc2)c2ccccc2n1 [Compound 35, 4-chloro-5-[6-(2-methylqinolin-4-yl)oxyhexyl]phenylpyrazole] | remarkably inhibitory activity | – | – | – | – |
